In US8148367B2 (Takeda Pharmaceutical Company Limited, priority 2008, dated 2012):
Like-named read-outs stand apart in the source and are kept apart here.

Target: T1, Recombinant human renin (Homo sapiens, UniProt P00797)
T1 construct: isolate the active form (residues 67-406); made in house; host or cells: FreeStyle 293-F cells, transient expression of pcDNA3.1(+)/hREN
T1 sequence (P00797 67-406): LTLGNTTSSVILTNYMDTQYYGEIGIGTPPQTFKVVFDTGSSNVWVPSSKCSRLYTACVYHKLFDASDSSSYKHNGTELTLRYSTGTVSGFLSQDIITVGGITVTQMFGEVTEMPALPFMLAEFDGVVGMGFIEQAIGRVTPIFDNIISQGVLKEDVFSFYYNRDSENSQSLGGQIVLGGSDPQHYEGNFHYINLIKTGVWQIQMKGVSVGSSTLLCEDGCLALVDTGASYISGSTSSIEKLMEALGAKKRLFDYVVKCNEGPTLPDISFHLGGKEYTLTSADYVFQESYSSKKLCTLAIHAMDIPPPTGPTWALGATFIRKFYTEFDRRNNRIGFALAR
Assay: In vitro enzymatic activity assay of renin inhibitors (fluorescence, QXL520/HiLyteFluo488 peptide substrate)
Assay type: biochemical

[1] = recombinant human renin 3 nM, 1 μM substrate, pre-incubated 10 minutes at 37° C., incubation one hour, pH 7.4, 5% DMSO, read-out: IC50 of Exemplified Compounds Against Renin

`COc1cccc(Cn2c(C(=O)N3CCNCC3)c(-c3ccccc3)n(-c3ccccc3C)c2=O)c1` [Example 143, 1-(3-Methoxybenzyl)-4-phenyl-5-(piperazine-1-carbonyl)-3-o-tolyl-1H-imidazol-2(3H)-one] was tested, and the IC50 [1] was 100 to 500 nM.

For `Cc1ccccc1-n1c(-c2ccccc2)c(C(=O)N2CCNCC2)n(CCNC(=O)C(C)C)c1=O` [Example 236, N-(2-(2-oxo-4-phenyl-5-(piperazine-1-carbonyl)-3-o-tolyl-2,3-dihydro-1H-imidazol-1-yl)ethyl)isobutyramide], the IC50 [1] was > 1000 nM.

`COc1ccccc1-n1c(-c2ccccc2)c(C(=O)N2CCNC[C@H]2Cc2ccccc2)[nH]c1=O` [Example 113, (R)-4-(2-Benzylpiperazine-1-carbonyl)-1-(2-methoxyphenyl)-5-phenyl-1H-imidazol-2(3H)-one] was tested, and the IC50 [1] was < 100 nM.

`O=C(c1[nH]c(=O)n(C2CCCCC2)c1-c1ccccc1)N1CCNCC1` [Example 29, 1-Cyclohexyl-5-phenyl-4-(piperazine-1-carbonyl)-1H-imidazol-2(3H)-one] was tested, and the IC50 [1] was 500 to 1000 nM.

`Cc1ccccc1-n1c(-c2ccccc2)c(C(=O)N2CCNCC2)n(Cc2cccc(OCCOc3ccccc3)c2)c1=O` [Example 73, 1-(3-(2-Phenoxyethoxy)benzyl)-4-phenyl-5-(piperazine-1-carbonyl)-3-o-tolyl-1H-imidazol-2(3H)-one] showed an IC50 [1] of 100 to 500 nM.

For `O=C(c1c(-c2ccccc2)n(C2CCCN(S(=O)(=O)c3ccccc3)C2)c(=O)n1Cc1ccccc1)N1CCNCC1` (stereo not drawn) [Example 96, 1-Benzyl-4-phenyl-3-(1-(phenylsulfonyl)piperidin-3-yl)-5-(piperazine-1-carbonyl)-1H-imidazol-2(3H)-one], the IC50 [1] was 500 to 1000 nM.

`O=C(c1[nH]c(=O)n(-c2ccccc2)c1-c1ccccc1)N1CCNCC1CO` (stereo not drawn) [Example 20, 4-(2-(Hydroxymethyl)piperazine-1-carbonyl)-1,5-diphenyl-1H-imidazol-2(3H)-one] was tested, and the IC50 [1] was > 1000 nM.

In the case of `NC(=O)Cn1c(C(=O)N2CCNCC2)c(-c2ccccc2)n(C2CCCCC2)c1=O` [Example 63, 2-(3-Cyclohexyl-2-oxo-4-phenyl-5-(piperazine-1-carbonyl)-2,3-dihydro-1H-imidazol-1-yl)acetamide], the IC50 [1] is reported as > 1000 nM.

For `COCCOc1cccc(Cn2c(C(=O)N3CCNCC3)c(-c3ccccc3)n(-c3ccccc3C)c2=O)c1` [Example 186, 1-(3-(2-Methoxyethoxy)benzyl)-4-phenyl-5-(piperazine-1-carbonyl)-3-o-tolyl-1H-imidazol-2(3H)-one], the IC50 [1] was 100 to 500 nM.

In the case of `CS(=O)(=O)c1cccc(-n2c(-c3ccccc3)c(C(=O)N3CCNC[C@H]3Cc3ccccc3)[nH]c2=O)c1` [Example 114, (R)-4-(2-Benzylpiperazine-1-carbonyl)-1-(3-(methylsulfonyl)phenyl)-5-phenyl-1H-imidazol-2(3H)-one], the IC50 [1] is reported as < 100 nM.

With `CC(=O)N1CCCC(n2c(-c3ccccc3)c(C(=O)N3CCNCC3)n(Cc3cccc(Oc4ccccc4)c3)c2=O)C1` (stereo not drawn) [Example 99, 1-(1-Acetylpiperidin-3-yl)-3-(3-phenoxybenzyl)-5-phenyl-4-(piperazine-1-carbonyl)-1H-imidazol-2(3H)-one] the IC50 [1] was > 1000 nM.

In the case of `O=C(c1c(-c2ccccc2)n(C2CCCCC2)c(=O)n1Cc1cc(Cl)nc(N2CCOCC2)c1)N1CCNCC1` [Example 90, 1-((2-Chloro-6-morpholinopyridin-4-yl)methyl)-3-cyclohexyl-4-phenyl-5-(piperazine-1-carbonyl)-1H-imidazol-2(3H)-one], the IC50 [1] is reported as 500 to 1000 nM.

For `O=C(c1c(-c2ccccc2)n(-c2cccc(N3CCOCC3)c2)c(=O)n1CCCNS(=O)(=O)c1ccccc1F)N1CCNCC1` [Example 193, 2-Fluoro-N-(3-(3-(3-morpholinophenyl)-2-oxo-4-phenyl-5-(piperazine-1-carbonyl)-2,3-dihydro-1H-imidazol-1-yl)propyl)benzenesulfonamide], the IC50 [1] was > 1000 nM.

For `Cc1ccccc1-n1c(-c2ccccc2)c(C(=O)N2CCNCC2)n(CCCNC(=O)C2CCCCC2)c1=O` [Example 247, N-(3-(2-oxo-4-phenyl-5-(piperazine-1-carbonyl)-3-o-tolyl-2,3-dihydro-1H-imidazol-1-yl)propyl)cyclohexanecarboxamide], the IC50 [1] was > 1000 nM.

`COc1ccc(NC(=O)NCCn2c(C(=O)N3CCNCC3)c(-c3ccccc3)n(-c3ccccc3C)c2=O)cc1` [Example 228, 1-(4-Methoxyphenyl)-3-(2-(2-oxo-4-phenyl-5-(piperazine-1-carbonyl)-3-o-tolyl-2,3-dihydro-1H-imidazol-1-yl)ethyl)urea] was tested, and the IC50 [1] was 500 to 1000 nM.

In the case of `Cc1ccccc1-n1c(-c2ccccc2)c(C(=O)N2CCNCC2)n(CCNC(=O)c2cccc(Cl)c2)c1=O` [Example 232, 3-Chloro-N-(2-(2-oxo-4-phenyl-5-(piperazine-1-carbonyl)-3-o-tolyl-2,3-dihydro-1H-imidazol-1-yl)ethyl)benzamide], the IC50 [1] is reported as 500 to 1000 nM.

`COCCCOc1cccc(-n2c(-c3ccccc3)c(C(=O)N3CCNCC3)n(CCCNS(=O)(=O)c3ccccc3)c2=O)c1` [Example 180, N-(3-(3-(3-(3-Methoxypropoxy)phenyl)-2-oxo-4-phenyl-5-(piperazine-1-carbonyl)-2,3-dihydro-1H-imidazol-1-yl)propyl)benzenesulfonamide] showed an IC50 [1] of 100 to 500 nM.

`Cc1ccccc1-n1c(-c2ccccc2)c(C(=O)N2CCNCC2)n(CCCNC(=O)OCc2ccccc2)c1=O` [Example 255, Benzyl 3-(2-oxo-4-phenyl-5-(piperazine-1-carbonyl)-3-o-tolyl-2,3-dihydro-1H-imidazol-1-yl)propylcarbamate] was tested, and the IC50 [1] was > 1000 nM.

Work on `COc1ccc(S(=O)(=O)NCCCn2c(C(=O)N3CCNCC3)c(-c3ccccc3)n(-c3cccc(N4CCOCC4)c3)c2=O)cc1` [Example 199, 4-Methoxy-N-(3-(3-(3-morpholinophenyl)-2-oxo-4-phenyl-5-(piperazine-1-carbonyl)-2,3-dihydro-1H-imidazol-1-yl)propyl)benzenesulfonamide] yielded an IC50 [1] of 500 to 1000 nM.

For `Cc1ccccc1-n1c(-c2ccccc2)c(C(=O)N2CCNCC2)n(CCCNC(=O)Oc2ccccc2)c1=O` [Example 252, Phenyl 3-(2-oxo-4-phenyl-5-(piperazine-1-carbonyl)-3-o-tolyl-2,3-dihydro-1H-imidazol-1-yl)propylcarbamate], the IC50 was > 1000 nM.

For `COCCOc1cccc(Cn2c(C(=O)N3CCNCC3)c(-c3ccccc3)n(-c3ccccc3OC)c2=O)c1` [Example 187, 1-(3-(2-Methoxyethoxy)benzyl)-3-(2-methoxyphenyl)-4-phenyl-5-(piperazine-1-carbonyl)-1H-imidazol-2(3H)-one], the IC50 [1] was > 1000 nM.

For `O=C(c1[nH]c(=O)n(-c2ccc3c(c2)NCCC3)c1-c1ccccc1)N1CCNC[C@H]1CCOc1ccccc1` [Example 140, (R)-4-(2-(2-Phenoxyethyl)piperazine-1-carbonyl)-5-phenyl-1-(1,2,3,4-tetrahydroquinolin-7-yl)-1H-imidazol-2(3H)-one], the IC50 [1] was < 100 nM.

With `COCCCOc1cccc(-n2c(-c3ccccc3)c(C(=O)N3CCNCC3)[nH]c2=O)n1` [Example 36, 1-(6-(3-Methoxypropoxy)pyridin-2-yl)-5-phenyl-4-(piperazine-1-carbonyl)-1H-imidazol-2(3H)-one] the IC50 [1] was > 1000 nM.

With `COc1cccc(Cn2c(C(=O)N3CCNCC3)c(-c3ccccc3)n(-c3ccccc3OC)c2=O)c1` [Example 147, 1-(3-Methoxybenzyl)-3-(2-methoxyphenyl)-4-phenyl-5-(piperazine-1-carbonyl)-1H-imidazol-2(3H)-one] the IC50 [1] was > 1000 nM.
